Patent US20020165213A1, “Estrogen induced neural stem cell increase” (Neurostasis, Inc., priority 2001, published 2002)

Legend:
SVZ proliferating cells = details: literature (Alonso, 2000; Tanapat et al., 1999); cited from earlier work
[1] = system: proliferating cells in the dentate gyrus; details: literature (Alonso, 2000; Tanapat et al., 1999); cited from earlier work
[2] = system: embryonic neural stem cells (embryonic day 14); assay: Estradiol on embryonic neural stem cell cultures: secondary spheres from one single sphere; format: cell-based
Method: (§1) To determine if estradiol, the main form of estrogen, increases the number of neural stem cells, the effect of estradiol on neural stem cell cultures was examined. Primary neural stem cells (from embryonic day 14 or adult subventricular zone) were cultured in EGF for seven days to make neurospheres. These primary neurospheres were then dissociated and re-plated in EGF to make pass 1 neurospheres. Pass 1 neurospheres, either embryonic or adult, were dissociated and plated (50,000 cell/ml) in culture medium containing EGF alone or EGF+4 nM estradiol. The culture was allowed to progress for seven days. To determine the number of neural stem cells in each culture, single spheres (15-20 per experiment) were dissociated and plated in single wells of a 96 well plate in culture medium containing EGF only. After 7 days, the number of spheres which came from one single sphere was counted. The following data represent the results from 15-20 replicates.

[3] = system: adult neural stem cells (adult subventricular zone); assay: Estradiol on adult neural stem cell cultures: secondary spheres from one single sphere; format: cell-based
Method: as §1

[4] = EGF+4 nM estradiol versus EGF alone

C[C@]12C[C@H](O)[C@H]3[C@@H](CCC4=CC(=O)CC[C@@]43C)[C@@H]1CC[C@@H]2C(=O)CO [corticosterone]
cell proliferation / mitotic activity in the SVZ (SVZ proliferating cells): no effect
cell proliferation in the dentate gyrus [1]: dramatically decreases cell proliferation

C[C@]12CC[C@@H]3c4ccc(O)cc4CC[C@H]3[C@@H]1CC[C@@H]2O [estradiol]
increase in the number of embryonic neural stem cells in response to estradiol [2, 4]: 150%
# secondary spheres from one single sphere ([2]; Embryo pass 1 neurospheres, EGF+4 nM estradiol, seven days, single spheres re-plated in EGF only, counted after 7 days, 15-20 replicates): 104±15
# secondary spheres from one single sphere ([3]; Adult pass 1 neurospheres, EGF+4 nM estradiol, seven days, single spheres re-plated in EGF only, counted after 7 days, 15-20 replicates): 78±11
increase in the number of adult neural stem cells in response to estradiol [3, 4]: 35%

Estrogen
cell proliferation / mitotic activity in the SVZ (SVZ proliferating cells): no mitotic activity
cell proliferation in the dentate gyrus [1]: stimulate proliferation
